Source: patent US8802597B2, “Herbicidal pyrimidines” (E I du Pont de Nemours and Company, priority 2003, dated 2014)
Like-named read-outs stand apart in the source and are kept apart here.

Experiments:
Experiment in all cases: Test C pre/postemergence
Format in all cases: in vivo
[1] = tested on: pigweed (Amaranthus retroflexus); conditions: Amaranthus retroflexus; for pest or weed control at 16 g/ha: 16 g ai/ha; for pest or weed control at 31 g/ha: 31 g ai/ha; for pest or weed control at 62 g/ha: 62 g ai/ha; for pest or weed control at 125 g/ha: 125 g ai/ha
In short: (§1)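 Greenhouse pot test: seeds treated preemergence, or plants at 2–18 cm (1- to 4-leaf stage) treated postemergence, with compound in non-phytotoxic solvent plus surfactant. Visual rating versus untreated controls after 12–14 days, scale 0 (no effect) to 100 (complete control); dash means not tested.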

[2] = tested on: woolly cupgrass (Eriochloa villosa); conditions: Eriochloa villosa; for pest or weed control at 16 g/ha: 16 g ai/ha; for pest or weed control at 31 g/ha: 31 g ai/ha; for pest or weed control at 62 g/ha: 62 g ai/ha; for pest or weed control at 125 g/ha: 125 g ai/ha
In short: as §1

[3] = tested on: yellow nutsedge (Cyperus esculentus); conditions: Cyperus; for pest or weed control at 16 g/ha: 16 g ai/ha; for pest or weed control at 31 g/ha: 31 g ai/ha; for pest or weed control at 62 g/ha: 62 g ai/ha; for pest or weed control at 125 g/ha: 125 g ai/ha
In short: as §1

[4] = tested on: velvetleaf (Abutilon theophrasti); conditions: Abutilon theophrasti; for pest or weed control at 16 g/ha: 16 g ai/ha; for pest or weed control at 31 g/ha: 31 g ai/ha; for pest or weed control at 62 g/ha: 62 g ai/ha; for pest or weed control at 125 g/ha: 125 g ai/ha
In short: as §1

[5] = tested on: crabgrass (Digitaria sanguinalis); conditions: Digitaria sanguinalis; for pest or weed control at 16 g/ha: 16 g ai/ha; for pest or weed control at 31 g/ha: 31 g ai/ha; for pest or weed control at 62 g/ha: 62 g ai/ha; for pest or weed control at 125 g/ha: 125 g ai/ha
In short: as §1

[6] = tested on: giant foxtail (Setaria faberii); conditions: Setaria faberi; for pest or weed control at 16 g/ha: 16 g ai/ha; for pest or weed control at 31 g/ha: 31 g ai/ha
In short: as §1

[7] = post-emergence, Postemergence, read-out: Plant response rating (scale of 0 to 100), Pigweed
[8] = post-emergence, Postemergence, scale 0 to 100 (0 no effect, 100 complete control), read-out: Pigweed plant response rating
[9] = pre-emergence, Preemergence, scale 0 to 100, 0 no effect, 100 complete control, read-out: Plant response rating, Pigweed
[10] = post-emergence, Postemergence, read-out: Plant response rating (scale of 0 to 100), Cupgrass, Woolly
[11] = post-emergence, Postemergence, scale 0 to 100 (0 no effect, 100 complete control), read-out: Cupgrass, Woolly plant response rating
[12] = pre-emergence, Preemergence, scale 0 to 100, 0 no effect, 100 complete control, read-out: Plant response rating, Cupgrass, Woolly
[13] = post-emergence, Postemergence, read-out: Plant response rating (scale of 0 to 100), Nutsedge, Yellow
[14] = post-emergence, Postemergence, scale 0 to 100 (0 no effect, 100 complete control), read-out: Nutsedge, Yellow plant response rating
[15] = pre-emergence, Preemergence, scale 0 to 100, 0 no effect, 100 complete control, read-out: Plant response rating, Nutsedge, Yellow
[16] = post-emergence, Postemergence, read-out: Plant response rating (scale of 0 to 100), Velvetleaf
[17] = post-emergence, Postemergence, scale 0 to 100 (0 no effect, 100 complete control), read-out: Velvetleaf plant response rating
[18] = pre-emergence, Preemergence, scale 0 to 100, 0 no effect, 100 complete control, read-out: Plant response rating, Velvetleaf
[19] = post-emergence, Postemergence, read-out: Plant response rating (scale of 0 to 100), Crabgrass
[20] = post-emergence, Postemergence, scale 0 to 100 (0 no effect, 100 complete control), read-out: Crabgrass plant response rating
[21] = pre-emergence, Preemergence, scale 0 to 100, 0 no effect, 100 complete control, read-out: Plant response rating, Crabgrass
[22] = post-emergence, Postemergence, read-out: Plant response rating (scale of 0 to 100), Foxtail, Giant
[23] = pre-emergence, Preemergence, scale 0 to 100, 0 no effect, 100 complete control, read-out: Plant response rating, Foxtail, Giant

`COC(=O)c1nc(C2CC2)nc(N)c1F` [Compound 25] gave a pest or weed control at 16 g/ha [1, 7] of 50%, a pest or weed control at 31 g/ha [1, 7] of 50% and a pest or weed control at 62 g/ha [1, 8] of 80%. It also gave a pest or weed control at 125 g/ha [1, 8] of 100%, a pest or weed control at 16 g/ha [1, 9] of 0% and a pest or weed control at 31 g/ha [1, 9] of 30%. The pest or weed control at 62 g/ha [1, 9] was 35%, the pest or weed control at 125 g/ha ([1]; pre-emergence, Preemergence, scale 0 to 100, read-out: Plant response rating, Pigweed) was 85% and the pest or weed control at 16 g/ha [2, 10] was 0%. The pest or weed control at 31 g/ha [2, 10] was 0%, the pest or weed control at 62 g/ha [2, 11] was 0% and the pest or weed control at 125 g/ha [2, 11] was 30%. The pest or weed control at 16 g/ha [2, 12] was 0%, the pest or weed control at 31 g/ha [2, 12] was 0% and the pest or weed control at 62 g/ha [2, 12] was 0%. It also gave a pest or weed control at 125 g/ha ([2]; pre-emergence, Preemergence, scale 0 to 100, read-out: Plant response rating, Cupgrass, Woolly) of 50%, a pest or weed control at 16 g/ha [3, 13] of 0% and a pest or weed control at 31 g/ha [3, 13] of 0%. For the same compound, the pest or weed control at 62 g/ha [3, 14] was 0%, the pest or weed control at 125 g/ha [3, 14] was 0% and the pest or weed control at 16 g/ha [3, 15] was 0%. For the same compound, the pest or weed control at 31 g/ha [3, 15] was 0%, the pest or weed control at 62 g/ha [3, 15] was 0% and the pest or weed control at 125 g/ha ([3]; pre-emergence, Preemergence, scale 0 to 100, read-out: Plant response rating, Nutsedge, Yellow) was 0%. For the same compound, the pest or weed control at 16 g/ha [4, 16] was 5%, the pest or weed control at 31 g/ha [4, 16] was 20% and the pest or weed control at 62 g/ha [4, 17] was 45%. It also gave a pest or weed control at 125 g/ha [4, 17] of 45%, a pest or weed control at 16 g/ha [4, 18] of 0% and a pest or weed control at 31 g/ha [4, 18] of 0%. For the same compound, the pest or weed control at 62 g/ha [4, 18] was 0%, the pest or weed control at 125 g/ha ([4]; pre-emergence, Preemergence, scale 0 to 100, read-out: Plant response rating, Velvetleaf) was 40% and the pest or weed control at 16 g/ha [5, 19] was 0%. For the same compound, the pest or weed control at 31 g/ha [5, 19] was 0%, the pest or weed control at 62 g/ha [5, 20] was 30% and the pest or weed control at 125 g/ha [5, 20] was 50%. It also gave a pest or weed control at 16 g/ha [5, 21] of 0%, a pest or weed control at 31 g/ha [5, 21] of 0% and a pest or weed control at 62 g/ha [5, 21] of 0%. For the same compound, the pest or weed control at 125 g/ha ([5]; pre-emergence, Preemergence, scale 0 to 100, read-out: Plant response rating, Crabgrass) was 0%, the pest or weed control at 125 g/ha ([6]; post-emergence, Postemergence, 125 g ai/ha, scale 0 to 100 (0 no effect, 100 complete control), read-out: Foxtail, Giant plant response rating) was 30% and the pest or weed control at 16 g/ha [6, 22] was 0%. For the same compound, the pest or weed control at 31 g/ha [6, 22] was 0%, the pest or weed control at 62 g/ha ([6]; post-emergence, Postemergence, 62 g ai/ha, scale 0 to 100 (0 no effect, 100 complete control), read-out: Foxtail, Giant plant response rating) was 5% and the pest or weed control at 16 g/ha [6, 23] was 0%. The pest or weed control at 31 g/ha [6, 23] was 0%.
